This is an account of results in patent publication US12540913B2, “Chemical sensor, reagent, and method for detecting benzoic acid and benzoic acid derivative” (KABUSHIKI KAISHA TOSHIBA, priority 2023, dated 2026).

SMILES strings stand for the structures. Where two headings read alike, the source gives them in different places.

The test has as its system cocaine aptamer. As to conditions: for Kd: read-out: dissociation constant Kd.

`CN1[C@@H]2CC[C@H]1C[C@@H](O)C2` [tropine]: the ITC heat generation entry (Comparative Example 2: 1 mM tropine titrated into 50 μM cocaine aptamer in D-PBS(−)) is listed as “no heat generation was observed” and the ITC heat generation entry (Comparative Example 3: 1 mM tropine titrated into 50 μM cocaine aptamer in D-PBS(−) containing 10 μM methyl benzoate) is given as “no heat generation was observed”.

As a reminder, the Kd is the concentration at which binding is half-saturated. Take `COC(=O)c1ccccc1` [methyl benzoate]: the dissociation constant Kd was found to be 87.7 µM (Comparative Example 1: 1 mM methyl benzoate titrated into 50 μM cocaine aptamer in D-PBS(−), no tropane derivative, binding order 1) and 69.7 µM (Example 1: 1 mM methyl benzoate titrated into 50 μM cocaine aptamer in D-PBS(−) containing 10 μM tropine).
